{"source": "patent US10143737B2", "about": "“Method for the vaccination against HIV” (Bionor Immuno AS, priority 2014, dated 2018)", "key": {"HIV-specific T-cells": {"test_system": "HIV-specific T-cells", "conditions": "dendritic cells presenting Gag- or Nef-specific peptides; cited from earlier work"}, "[1]": {"test_system": "latently infected cell lines and primary T cells", "conditions": "cited from earlier work"}, "[2]": {"test_system": "pooled human sera from HIV chronically infected individuals, LTNP and non-infected blood donors", "assay": "Seroreactivity of pooled human sera to peptide-coated magnetic particles (general ELISA principle)", "assay_type": "binding", "conditions": "peptide 600 μg/ml alone or 300 μg/ml each in combination; positivity determined visually", "description": "Seroreactivity to SEQ ID NO: 1 alone or in combination with SEQ ID NOs. 6 (with the sequence […]), 8 and 9 was determined according to a general ELISA principle either using magnetic particles as a solid support or attachment of peptides to a 96-well tray.\nIn the system described below, peptide was coated on to magnetic particles using generally accepted techniques. 300 μg was coated onto particles for all peptides with the exception of SEQ1 where 600 μg was used. SEQ ID NO: 1 (from C5) and SEQ ID NO: 6, 8 and 9 (from gp41) were preincubated overnight at 4 degrees C. to allow interactions to form between between C5 and gp41 sequences respectively and all combined. Sera were then incubated with the peptide coated beads according to established protocols. Visualisation of antibody binding to C5 peptides was achieved using protein G that can bind immunoglobulins from different species coupled to alkaline phosphatase. The positive control was commercially available serum from a sheep immunised with the C5 derived sequence […] (SEQ ID NO: 1).\nPooled sera from 25 LTNP were tested for seroreactivity to SEQ ID NO: 1 alone and SEQ ID NO: 1 when in combination with SEQ ID NOs: 6 ([…]), 8 and 9 respectively and all combined. Pooled sera were also tested from 12 HIV positive, chronically infected individuals and 20 sera from blood donors."}, "[3]": {"test_system": "Anti-C5/gp41 sera from BI400-B immunized rabbits", "assay": "Competitive ELISA for rabbit sera after immunization with BI400-B", "assay_type": "binding", "conditions": "for Inhibition of binding of rabbit sera to C5/gp41 (015/201): competitor preincubated with serum, 10-1000 μM", "description": "50-100 μl of a mixture of BI400-015 and -201 (pre-incubated in Coating buffer—0.05M Na2CO3 pH9.6; denoted CB—in cold at 16 μg/ml for each peptide 1-3 days prior to coating) or just CB (background control) was used for coating wells in microtiter plates at 4° C. overnight. Plates were then washed 3x with washing buffer (PBS+1% v/v Triton-X100; denoted WB), followed by 2 h blocking at room temperature (RT) with 200 μl/well of blocking buffer (PBS+1% w/v BSA). Plates were then washed 3x with WB, followed by 1 h incubation at 37° C. with 60-100 μl/well of added rabbit serum samples (diluted 1:10-1:250 final concentration) preincubated together (4° C. overnight) with serial dilutions (ranging from 10-1000 μM final concentration) of 400-SEQ.B, BI400-015, BI400-201, BI400-204d, recombinant gp41 (Shin-Won Scientific, SWO 102 gp41), BI301-23 (irrelevant protein; control), no peptide (i.e. PBS; control), LTNP-sera pools (diluted 1:10 final concentration), or Blood donor sera-pools (diluted 1:10 final concentration; control). Plates were then washed 6x with WB, followed by 1 h incubation at RT with 70 μl/well of Alkaline Phosphatase-conjugated Goat-anti-Rabbit-Ig (6 μg/ml; Dako D0487). Plates were then washed 6x with WB, followed by 10-60 min incubation at RT with 100 μl/well of 0.3% w/v of Phenoftalein monophosphate (Sigma P-5758). Plates were finally quenched by adding 100 μl/well of Quench solution (0.1M TRIS+0.1M EDTA+0.5M NaOH+0.01% w/v NaN3; pH14), followed by ELISA reader (ASYS UVM 340) at 550 nm."}, "C5/gp41 (015/201)": {"test_system": "C5/gp41 (015/201)", "assay": "Rabbit immunization with BI400-B vaccine, serum ELISA", "assay_type": "in vivo, New Zealand White female rabbits", "conditions": "500 μg intradermally weeks 0, 2, 6 in Freund's adjuvant; in the presence of PBS", "description": "New Zealand White female rabbits (n=3) were immunized intradermally at weeks 0, 2 & 6 with 1 ml of BI400-B vaccine consisting of 500 μg BI400-B in 50% V/V Freund's adjuvant (i.e. Complete Freund's adjuvant used for priming, followed by boostings with Incomplete Freund's adjuvant). Individual blood serum was isolated for ELISA.\n50-100 μl of a mixture of BI400-015 and -201 (pre-incubated in Coating buffer—0.05M Na2CO3 pH9.6; denoted CB—in cold at 16 μg/ml for each peptide 1-3 days prior to coating) or just CB (background control) was used for coating wells in microtiter plates at 4° C. overnight. Plates were then washed 3x with washing buffer (PBS+1% v/v Triton-X100; denoted WB), followed by 2 h blocking at room temperature (RT) with 200 μl/well of blocking buffer (PBS+1% w/v BSA). […] Plates were finally quenched by adding 100 μl/well of Quench solution (0.1M TRIS+0.1M EDTA+0.5M NaOH+0.01% w/v NaN3; pH14), followed by ELISA reader (ASYS UVM 340) at 550 nm."}}, "note": "Bridges are numbered along the chain shown (N, C = ends). Roman numbers before positions name the chains, in order. Where no end group is shown, it is not given here.", "data": [{"compound": "Nc1cccc2c1CN(C1CCC(=O)NC1=O)C2=O", "note": "(stereo not shown) [Lenalidomide]", "values": [{"measurement": "Function of T-cells after in vitro stimulation in presence of IMiDs", "setting": "HIV-specific T-cells", "result": "a number of improvements in the function of the T-cells"}]}, {"compound": "Nc1cccc2c1C(=O)N(C1CCC(=O)NC1=O)C2=O", "note": "(stereo not shown) [pomalidomide]", "values": [{"measurement": "Function of T-cells after in vitro stimulation in presence of IMiDs", "setting": "HIV-specific T-cells", "result": "a number of improvements in the function of the T-cells"}]}, {"compound": "C/C=C1\\NC(=O)[C@H]2CSSCC/C=C/[C@H](CC(=O)N[C@H](C(C)C)C(=O)N2)OC(=O)[C@H](C(C)C)NC1=O", "note": "[romidepsin, (1S,4S,7Z,10S,16E,21R)-7-ethylidene-4,21-bis(1-methylethyl)-2-oxa-12,13-dithia-5,8,20,23-tetraazabicyclo[8.7.6] tricos-16-ene-3,6,9,19,22-pentone]", "values": [{"measurement": "Activation of HIV-1 expression", "setting": "[1]", "result": "potently activates HIV-1 expression"}]}, {"compound": "APTKAKRRVVQREKR [SEQ ID NO: 1]", "values": [{"measurement": "Seroreactivity, Blood-donors pool", "setting": "[2]", "result": "="}, {"measurement": "Inhibition of binding of rabbit sera to C5/gp41 (015/201)", "setting": "[3]", "result": "could be inhibited"}]}, {"compound": "BI400-B: SEQ ID NO: 38 and SEQ ID NO: 39 linked via Cys and Lys residues (chain 1 GAKRRVVGGCGGAKRRVVQREKRAGEREKRA; chain 2 GKGGIEEEGGRDRDRGGEQDRDR; bridge I:10-II:2 (inferred))", "values": [{"measurement": "Binding of sera from immunized rabbits to C5/gp41 peptides", "setting": "C5/gp41 (015/201)", "result": "bound to peptides corresponding to C5/gp41 (015/201)"}, {"measurement": "Inhibition of binding of rabbit sera to C5/gp41 (015/201)", "setting": "[3]", "result": "could be inhibited"}, {"measurement": "Competition of anti-C5/gp41 rabbit sera by human sera pools", "setting": "[3]; sera pools diluted 1:10", "result": "competitively inhibited by LTNP-sera pools, but not with BD control sera"}]}, {"compound": "DRPEGIEEEGGERDR (Glu can be Gly; Gly can be Arg; Arg can be Gln; Asp can be Gly; Arg can be Lys) [SEQ ID NO: 6]", "values": [{"measurement": "Inhibition of binding of rabbit sera to C5/gp41 (015/201)", "setting": "[3]", "result": "could be inhibited"}]}, {"compound": "GGAIVNGSLADDDIVI [SEQ ID NO: 37]", "values": [{"measurement": "Inhibition of binding of rabbit sera to C5/gp41 (015/201)", "setting": "[3]", "result": "could be inhibited"}]}]}
